In PubChem BioAssay (NCI):
Where “and” joins values, the source holds several entries; their conditions need not be identical. Identical values can stand only once.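 Compound exposure: 48 hours, 5 concentrations, 96-well plates. GI50: concentration for 50% inhibition of growth. TGI: total growth inhibition.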

Tests used:
Assay in all cases: inhibition of tumour cell growth, NCI panel, 48 h
HS 578T breast = test system: HS 578T breast
IGROV1 ovarian = test system: IGROV1 ovarian
KM12 colon = test system: KM12 colon
MDA-MB-231 breast = test system: MDA-MB-231 breast
MOLT-4 leukemia = test system: MOLT-4 leukemia
OVCAR-4 ovarian = test system: OVCAR-4 ovarian
OVCAR-5 ovarian = test system: OVCAR-5 ovarian
SF-268 CNS = test system: SF-268 CNS
SK-OV-3 ovarian = test system: SK-OV-3 ovarian
UO-31 renal = test system: UO-31 renal

| SMILES | GI50 (HS 578T breast) | TGI (HS 578T breast) | GI50 (IGROV1 ovarian) | TGI (IGROV1 ovarian) | GI50 (KM12 colon) | TGI (KM12 colon) | GI50 (MDA-MB-231 breast) | TGI (MDA-MB-231 breast) | GI50 (MOLT-4 leukemia) | TGI (MOLT-4 leukemia) | GI50 (OVCAR-4 ovarian) | TGI (OVCAR-4 ovarian) | GI50 (OVCAR-5 ovarian) | TGI (OVCAR-5 ovarian) | GI50 (SF-268 CNS) | TGI (SF-268 CNS) | GI50 (SK-OV-3 ovarian) | TGI (SK-OV-3 ovarian) | GI50 (UO-31 renal) | TGI (UO-31 renal) |
| --- | --- | --- | --- | --- | --- | --- | --- | --- | --- | --- | --- | --- | --- | --- | --- | --- | --- | --- | --- | --- |
| C=C(C(=O)OC)[C@@H]1CC2OC1C(=O)C(C)CCC/C(C)=C/CC[C@@]2(C)O (stereo partly drawn) | 36.9 µM | > 100 µM | 11.3 µM | 25.4 µM | 23.8 µM | > 100 µM | 28.3 µM | 68 µM | 17.2 µM | 54.5 µM | 37.9 µM | > 100 µM | 76.7 µM | > 100 µM | 39.4 µM | > 100 µM | > 100 µM | > 100 µM | 16.4 µM | 31.2 µM |
| CN1CCN(CCCOc2ccc3nc(Nc4ccc(F)c(F)c4)ccc3c2)CC1 | 1.82 µM | 5.43 µM | 3.11 µM | 9.01 µM | 1.89 µM | 4.16 µM | 1.63 µM | 3.57 µM | 2.37 µM | 7.76 µM | 2.84 µM | 14.9 µM | 2.26 µM | 5.62 µM | 2.45 µM | 8.31 µM | 2.59 µM | 6.9 µM | 1.68 µM | 3.43 µM |
| Nc1c(C(=O)c2cccc(C(O)CO)c2)cnn1-c1ccc(F)cc1 (stereo not drawn) | > 25 µM | > 25 µM | > 25 µM | > 25 µM | > 25 µM | > 25 µM | > 25 µM | > 25 µM | > 25 µM | > 25 µM | > 25 µM | > 25 µM | > 25 µM | > 25 µM | > 25 µM | > 25 µM | > 25 µM | > 25 µM | > 25 µM | > 25 µM |
| O=S(=O)(/N=S(/Nc1ccccc1)C(F)(F)Cl)c1ccccc1 (stereo not drawn) |  | > 100 µM |  | > 100 µM |  | > 100 µM |  | > 100 µM |  | > 100 µM |  | > 100 µM |  | > 100 µM |  | > 100 µM |  | > 100 µM |  | > 100 µM |
| CC12CCC(=O)C(O1)C1C(=O)c3ccc4c(ccc5ccccc54)c3C(=O)C12 (stereo not drawn) | 9.77 µM | > 26.1 µM | 7.09 µM | > 100 µM | 4.99 µM | 9.66 µM | 2.14 µM | 6.64 µM | 1.31 µM | 17.5 µM | 1.4 µM | 3.01 µM | 6.64 µM | 11.4 µM | 15.3 µM | 36.1 µM | 11.5 µM | > 39.1 µM | 6.69 µM |  |
| CCC[CH2][Sn]([CH2]CCC)([CH2]CCC)/[C](=C/[Si](C)(C)c1ccccc1)c1ccc2c(c1)OCO2 | 42.6 µM | > 100 µM | 16.9 µM | 37.9 µM | 16.2 µM | 34.1 µM | 14.8 µM | 32.8 µM | 17.4 µM | 83.3 µM | 14.9 µM | 36.6 µM | 19 µM | 44 µM | 10.7 µM | 98.4 µM | 18.5 µM | 41 µM | 18.6 µM | 33.6 µM |
| COc1cc(/C=C/C(=O)CC(=O)/C=C/c2cc(OC)c(O)c(OC)c2)cc(OC)c1O | 5.73 µM | 18 µM and 53.8 µM | 11 µM | 10.8 µM and 32.2 µM | 13.5 µM | 15.4 µM and 31.1 µM | 9.37 µM | 25 µM and 32.6 µM | 5.1 µM | 25 µM and 84.4 µM | 29.5 µM | 25 µM and > 100 µM | 27.1 µM | 25 µM and 83.5 µM | 9.06 µM | 15.4 µM and 41.2 µM | 32 µM | 24 µM and > 100 µM | 41.2 µM | > 100 µM |
| COc1cc(C)cc(C(=O)/C=C/c2ccccc2)c1O |  | > 100 µM |  | 30.5 µM |  | 41.2 µM |  | 47.9 µM |  | 69.8 µM |  | 45.9 µM |  | 34.9 µM |  | 88.1 µM |  | 83.5 µM |  | 32.4 µM |
| Nc1nc(Cl)nc2c1ncn2C1OC(CO)C(O)C1F (stereo not drawn) | 4.71 µM | > 80.7 µM | > 18 µM | > 100 µM | 1.8 µM | > 100 µM | 4.93 µM | > 26.5 µM |  | > 100 µM | > 82.2 µM | > 100 µM | 5.68 µM | > 100 µM | 0.223 µM | 21.3 µM | 0.355 µM | > 100 µM | 0.228 µM | > 26 µM |
| CC(C)[P+](c1ccccc1)(c1ccccc1)c1ccccc1 | 13.4 µM | > 100 µM | 14.3 µM | > 100 µM | 2.57 µM | > 100 µM | 10.6 µM | > 100 µM | 6.9 µM | > 100 µM | 3.7 µM | 94.6 µM | 28.5 µM | > 100 µM | 5.11 µM | > 100 µM | 22.4 µM | > 100 µM | > 100 µM | > 100 µM |
| COc1ccc(Nc2ncnc3ccc(-c4cncc(NS(C)(=O)=O)c4)cc23)cc1Cl | 1.26 µM | 5.18 µM | 1.4 µM | 4.46 µM | 3.15 µM | 11.7 µM | 2.71 µM | 15.3 µM | 1.5 µM | 4 µM | 4.22 µM | 83.1 µM | 2.87 µM | 29 µM | 2.3 µM | 16.4 µM | 2.49 µM | 6.93 µM | 3.04 µM | 22.5 µM |
